Assay results: patent publication US11339130B1 (Blade Therapeutics, Inc., priority 2016, dated 2022)

Assays:
Human Calpain 1/NS1 = biological target: T1, Human Calpain 1/NS1 (Homo sapiens, UniProt P07384); assay: Calpain inhibition continuous fluorescence (FRET) assay, Human Calpain 1/NS1; type: biochemical; settings: Column A; read-out: Human Calpain 1/NS1 IC50
T1 sequence (P07384 1-714): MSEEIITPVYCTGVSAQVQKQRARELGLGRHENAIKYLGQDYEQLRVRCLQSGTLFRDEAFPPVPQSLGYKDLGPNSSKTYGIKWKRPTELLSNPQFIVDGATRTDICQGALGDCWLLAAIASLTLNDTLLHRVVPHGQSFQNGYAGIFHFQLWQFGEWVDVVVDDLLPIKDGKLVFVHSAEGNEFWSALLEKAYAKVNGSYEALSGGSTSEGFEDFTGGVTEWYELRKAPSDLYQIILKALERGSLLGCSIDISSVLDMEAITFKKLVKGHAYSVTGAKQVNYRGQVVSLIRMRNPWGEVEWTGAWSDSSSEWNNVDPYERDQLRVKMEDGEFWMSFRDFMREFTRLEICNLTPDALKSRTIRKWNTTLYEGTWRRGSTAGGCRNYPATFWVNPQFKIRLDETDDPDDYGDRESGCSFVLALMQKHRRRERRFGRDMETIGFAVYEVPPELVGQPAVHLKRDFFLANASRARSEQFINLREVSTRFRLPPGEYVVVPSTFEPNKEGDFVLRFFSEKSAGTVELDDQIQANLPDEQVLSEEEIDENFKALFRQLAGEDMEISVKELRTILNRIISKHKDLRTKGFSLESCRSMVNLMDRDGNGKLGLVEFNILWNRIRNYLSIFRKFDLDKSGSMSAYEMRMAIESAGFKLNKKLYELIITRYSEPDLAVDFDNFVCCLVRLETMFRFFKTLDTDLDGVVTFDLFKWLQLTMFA
T1 sequence (P04632 1-268 partner): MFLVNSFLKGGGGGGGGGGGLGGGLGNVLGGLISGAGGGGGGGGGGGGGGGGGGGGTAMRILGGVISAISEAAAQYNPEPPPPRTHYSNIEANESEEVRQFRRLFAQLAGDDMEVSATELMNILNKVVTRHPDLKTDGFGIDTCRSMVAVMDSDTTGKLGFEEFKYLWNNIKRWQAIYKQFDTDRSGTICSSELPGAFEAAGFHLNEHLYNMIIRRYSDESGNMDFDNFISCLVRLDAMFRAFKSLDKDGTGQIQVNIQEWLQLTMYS
Summary of the method: (§1)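 Inhibitors were preincubated with calpain in 50 mM Tris pH 7.5, 100 mM NaCl, 1 mM DTT at 25C. Reactions were started with 5-FAM/QXL 520 FRET peptide substrate plus CaCl2 and read at 490/520 nm for 10 min. IC50s came from 4-parameter fits of slope rates (1-5 min).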

Human Calpain 2/NS1 = biological target: T2, Human Calpain 2/NS1 (Homo sapiens, UniProt P17655); assay: Calpain inhibition continuous fluorescence (FRET) assay, Human Calpain 2/NS1; type: biochemical; settings: Column B; read-out: Human Calpain 2/NS1 IC50
T2 sequence (P17655 1-700): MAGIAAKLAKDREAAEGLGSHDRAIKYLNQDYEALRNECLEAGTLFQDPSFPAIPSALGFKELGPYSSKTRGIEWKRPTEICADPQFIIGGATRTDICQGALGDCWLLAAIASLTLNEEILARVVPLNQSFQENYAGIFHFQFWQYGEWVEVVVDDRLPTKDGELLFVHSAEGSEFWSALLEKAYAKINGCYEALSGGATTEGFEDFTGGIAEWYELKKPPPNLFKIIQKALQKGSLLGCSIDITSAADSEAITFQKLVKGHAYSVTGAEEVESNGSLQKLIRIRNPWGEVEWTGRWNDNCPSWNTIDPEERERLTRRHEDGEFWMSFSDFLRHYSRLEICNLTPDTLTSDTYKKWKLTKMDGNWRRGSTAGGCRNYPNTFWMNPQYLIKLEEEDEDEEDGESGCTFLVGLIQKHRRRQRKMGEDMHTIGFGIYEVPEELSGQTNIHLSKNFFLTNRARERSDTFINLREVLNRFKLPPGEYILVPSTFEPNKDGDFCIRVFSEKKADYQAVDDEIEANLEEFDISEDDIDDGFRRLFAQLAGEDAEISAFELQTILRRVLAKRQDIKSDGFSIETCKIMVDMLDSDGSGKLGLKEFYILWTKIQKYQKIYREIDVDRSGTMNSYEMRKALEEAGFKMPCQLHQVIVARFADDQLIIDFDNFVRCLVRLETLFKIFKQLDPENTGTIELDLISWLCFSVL
T2 sequence (P04632 1-268 partner): T1 sequence (P04632 1-268 partner)
Summary of the method: as §1

Human Calpain 9/NS1 = biological target: T3, Human Calpain 9/NS1 (Homo sapiens, UniProt O14815); assay: Calpain inhibition continuous fluorescence (FRET) assay, Human Calpain 9/NS1; type: biochemical; settings: Column C; read-out: Human Calpain 9/NS1 IC50
T3 sequence (O14815 1-690): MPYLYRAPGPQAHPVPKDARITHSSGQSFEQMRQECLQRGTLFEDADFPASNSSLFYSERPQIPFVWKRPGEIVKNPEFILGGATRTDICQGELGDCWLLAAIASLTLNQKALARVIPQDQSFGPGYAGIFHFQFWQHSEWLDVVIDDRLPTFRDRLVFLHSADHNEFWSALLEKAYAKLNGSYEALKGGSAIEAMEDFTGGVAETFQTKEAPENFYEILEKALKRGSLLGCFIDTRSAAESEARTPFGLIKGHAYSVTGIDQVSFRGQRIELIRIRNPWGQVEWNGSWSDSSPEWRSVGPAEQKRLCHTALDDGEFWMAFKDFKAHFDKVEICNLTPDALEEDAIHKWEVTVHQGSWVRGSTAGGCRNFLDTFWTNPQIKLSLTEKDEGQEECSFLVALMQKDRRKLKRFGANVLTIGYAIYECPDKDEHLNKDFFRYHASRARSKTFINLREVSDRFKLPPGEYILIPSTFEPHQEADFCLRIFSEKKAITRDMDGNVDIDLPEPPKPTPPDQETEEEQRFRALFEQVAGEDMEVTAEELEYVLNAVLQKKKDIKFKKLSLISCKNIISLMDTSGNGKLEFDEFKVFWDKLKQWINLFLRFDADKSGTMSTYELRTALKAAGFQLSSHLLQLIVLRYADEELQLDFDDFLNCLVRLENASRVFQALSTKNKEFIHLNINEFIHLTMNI
T3 sequence (P04632 1-268 partner): T1 sequence (P04632 1-268 partner)
Summary of the method: as §1

[1] = tested on: Calpain activity in SH-SY5Y cells (SBDP-150); assay: SH-SY5Y Spectrin western blot assay (SBDP-150 breakdown product, A23187-induced); type: cell-based; settings: Homo sapiens; Column D; SH-SY5Y cells, A23187-induced SBDP-150; read-out: SH-SY5Y Spectrin IC50
[2] = tested on: Calpain activity in SH-SY5Y cells; assay: SH-SY5Y + AMC fluorescence assay (Suc-LLVY-AMC substrate); type: cell-based; settings: Column E, read-out: SH-SY5Y + AMC IC50

| Structure (SMILES) | IC50 (Human Calpain 1/NS1) [µM] | IC50 (Human Calpain 2/NS1) [µM] | IC50 (Human Calpain 9/NS1) [µM] | IC50 [1] [µM] | IC50 [2] [µM] |
| --- | --- | --- | --- | --- | --- |
| Cc1nnn(-c2ccccc2)c1C(=O)N[C@@H](Cc1ccccc1)C(=O)C(N)=O [Compound 55, (S)—N-(4-amino-3,4-dioxo-1-phenylbutan-2-yl)-4-methyl-1-phenyl-1H-1,2,3-triazole-5-carboxamide] | < 3 | < 3 | < 3 | < 10 | > 25 |
| Cc1noc(-c2ccccc2)c1C(=O)N[C@@H](Cc1c[nH]c2ccccc12)C(=O)C(N)=O [Compound 57, (S)—N-(4-amino-1-(1H-indol-3-yl)-3,4-dioxobutan-2-yl)-3-methyl-5-phenylisoxazole-4-carboxamide] | < 3 | < 3 | < 3 | < 10 | 10 to 25 |
| Cc1noc(-c2ccccc2)c1C(=O)N[C@@H](Cc1ccc(F)cc1)C(=O)C(N)=O [Compound 58] | < 3 | < 3 | < 3 | 10 to 25 | > 25 |
| Cc1cc(C(=O)N[C@@H](Cc2ccccc2)C(=O)C(N)=O)n(-c2cnccn2)n1 [Compound 63, (S)—N-(4-amino-3,4-dioxo-1-phenylbutan-2-yl)-3-methyl-1-(pyrazin-2-yl)-1H-pyrazole-5-carboxamide] | < 3 | < 3 | < 3 | < 10 | < 10 |
| Cc1cc(C(=O)N[C@@H](Cc2ccccc2)C(=O)C(N)=O)n(-c2cccc(-c3ccccc3C)c2)n1 [Compound 81, (S)—N-(4-amino-3,4-dioxo-1-phenylbutan-2-yl)-3-methyl-1-(2′-methyl-[1,1′-biphenyl]-3-yl)-1H-pyrazole-5-carboxamide] | < 3 | < 3 | < 3 | < 10 | 10 to 25 |
| Cc1cc(C(=O)N[C@@H](Cc2ccccc2)C(=O)C(N)=O)n(-c2nc(-c3ccccc3)cs2)n1 [Compound 82, (S)—N-(4-amino-3,4-dioxo-1-phenylbutan-2-yl)-3-methyl-1-(4-phenylthiazol-2-yl)-1H-pyrazole-5-carboxamide] | < 3 | < 3 | < 3 | < 10 | > 25 |
| Cc1cc(C(=O)N[C@@H](Cc2ccccc2)C(=O)C(N)=O)n(-c2ccc(-c3ccccc3)cc2)n1 [Compound 83, (S)-1-([1,1′-biphenyl]-4-yl)-N-(4-amino-3,4-dioxo-1-phenylbutan-2-yl)-3-methyl-1H-pyrazole-5-carboxamide] | < 3 | < 3 | < 3 | < 10 | > 25 |
| Cc1cccc(-n2nc(C)cc2C(=O)N[C@@H](Cc2ccccc2)C(=O)C(N)=O)n1 [Compound 84, (S)—N-(4-amino-3,4-dioxo-1-phenylbutan-2-yl)-3-methyl-1-(6-methylpyridin-2-yl)-1H-pyrazole-5-carboxamide] | < 3 | < 3 | < 3 | < 10 | < 10 |
| COc1cccc(-n2nc(C)cc2C(=O)N[C@@H](Cc2ccccc2)C(=O)C(N)=O)n1 [Compound 99, (S)—N-(4-amino-3,4-dioxo-1-phenylbutan-2-yl)-1-(6-methoxypyridin-2-yl)-3-methyl-1H-pyrazole-5-carboxamide] | < 3 | < 3 | < 3 | 10 to 25 | 10 to 25 |
| Cc1cc(C(=O)N[C@@H](Cc2ccccc2)C(=O)C(N)=O)n(-c2cccc(-c3ccc(F)cc3)c2)n1 [Compound 103, (S)—N-(4-amino-3,4-dioxo-1-phenylbutan-2-yl)-1-(4′-fluoro-[1,1′-biphenyl]-3-yl)-3-methyl-1H-pyrazole-5-carboxamide] | < 3 | < 3 | < 3 | > 25 | > 25 |
| Cc1cccc(-c2cccc(-n3nc(C)cc3C(=O)N[C@@H](Cc3ccccc3)C(=O)C(N)=O)c2)c1 [Compound 105, (S)—N-(4-amino-3,4-dioxo-1-phenylbutan-2-yl)-3-methyl-1-(3′-methyl-[1,1′-biphenyl]-3-yl)-1H-pyrazole-5-carboxamide] | < 3 | < 3 | < 3 | > 25 | > 25 |
| Cc1cc(C(=O)N[C@@H](Cc2ccccc2)C(=O)C(N)=O)n(-c2cccc(-c3cccc(F)c3)c2)n1 [Compound 106, (S)—N-(4-amino-3,4-dioxo-1-phenylbutan-2-yl)-1-(3′-fluoro-[1,1′-biphenyl]-3-yl)-3-methyl-1H-pyrazole-5-carboxamide] | < 3 | < 3 | < 3 | < 10 | > 25 |
| Cc1nc(-c2ccccc2)c(C(=O)N[C@@H](Cc2ccc(F)cc2)C(=O)C(N)=O)o1 [Compound 107, (S)—N-(4-amino-1-(4-fluorophenyl)-3,4-dioxobutan-2-yl)-2-methyl-4-phenyloxazole-5-carboxamide] | < 3 | < 3 | < 3 | < 10 | < 10 |
| NC(=O)C(=O)[C@H](Cc1ccccc1)NC(=O)c1cncn1-c1ccc(-c2ncco2)cn1 [Compound 112, (S)—N-(4-amino-3,4-dioxo-1-phenylbutan-2-yl)-1-(5-(oxazol-2-yl)pyridin-2-yl)-1H-imidazole-5-carboxamide] | < 3 | < 3 | < 3 | < 10 | > 25 |
| Cc1cc(C(=O)N[C@@H](Cc2ccccc2)C(=O)C(N)=O)n(-c2ncc(-c3ccccc3)s2)n1 [Compound 113, (S)—N-(4-amino-3,4-dioxo-1-phenylbutan-2-yl)-3-methyl-1-(5-phenylthiazol-2-yl)-1H-pyrazole-5-carboxamide] | < 3 | < 3 | < 3 | < 10 | > 25 |
